What is called Kd is the concentration at which binding is half-saturated. Read a low Kd as a tighter complex.

A value given as a limit tells only on which side of the number the result lay.

These results are taken from US12043632B2, “6-heteroaryloxy benzimidazoles and azabenzimidazoles as JAK2 inhibitors” (Ajax Therapeutics, Inc., priority 2020, dated 2024).

T1 sequence (O60674 849-1124 Y1007F/Y1008F limits assumed): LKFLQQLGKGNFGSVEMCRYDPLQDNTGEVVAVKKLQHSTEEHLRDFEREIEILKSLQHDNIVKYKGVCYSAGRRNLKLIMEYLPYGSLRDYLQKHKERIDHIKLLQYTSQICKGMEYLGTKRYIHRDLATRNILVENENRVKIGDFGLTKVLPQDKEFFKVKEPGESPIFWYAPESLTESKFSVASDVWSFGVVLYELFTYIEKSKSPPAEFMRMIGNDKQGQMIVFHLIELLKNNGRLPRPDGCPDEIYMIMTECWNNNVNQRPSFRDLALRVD

This experiment concerns the target T1, JAK2 (JH1domain-catalytic, Y1007F,Y1008F) kinase (Homo sapiens, UniProt O60674, Y1007F/Y1008F).
T1 construct: JAK2 (JH1domain-catalytic, Y1007F,Y1008F) kinase was expressed as N-terminal fusion; made in house; host or cells: transiently transfected HEK293 cells
Description: JAK2 JH1 Domain Binding Assay. The following applies: qPCR readout. In general terms: In qPCR the cycle at which signal appears reflects the starting amount.
The compound `CNc1cn2ncc(Oc3cnc4nc(Nc5cc(C(F)(F)F)cn(-c6cccnc6)c5=O)n(C)c4c3Cl)c2cn1` [Example I-324, 3-((7-chloro-1-methyl-6-((6-(methylamino)pyrazolo[1,5-a]pyrazin-3-yl)oxy)-1H-imidazo[4,5-b]pyridin-2-yl)amino)-5-(trifluoromethyl)-2H-[1,3′-bipyridin]-2-one] gave a dissociation constant Kd of 50 to 1000 nM.

Turning to `[2H]C([2H])([2H])n1cc(C(F)(F)F)cc(Nc2nc3ncc(Oc4cnn5cc(NC)ncc45)c(Cl)c3n2C)c1=O` [Example I-325, 3-((7-chloro-1-methyl-6-((6-(methylamino)pyrazolo[1,5-a]pyrazin-3-yl)oxy)-1H-imidazo[4,5-b]pyridin-2-yl)amino)-1-(methyl-d3)-5-(trifluoromethyl)pyridin-2(1H)-one], the dissociation constant (Kd) is 10 to 50 nM.

`CNc1cn2ncc(Oc3cnc4nc(Nc5ccc(CN6CCC(F)(F)C6)c(C(F)(F)F)c5)n(C)c4c3Cl)c2cn1` [Example I-326, 7-chloro-N-(4-((3,3-difluoropyrrolidin-1-yl)methyl)-3-(trifluoromethyl)phenyl)-1-methyl-6-((6-(methylamino)pyrazolo[1,5-a]pyrazin-3-yl)oxy)-1H-imidazo[4,5-b]pyridin-2-amine]: the equilibrium dissociation constant (Kd) was 50 to 1000 nM.

`CNc1cn2ncc(Oc3cnc4nc(Nc5cc(CN(C)C)cc(C(F)(F)F)c5)n(C)c4c3Cl)c2cn1` [Example I-327, 7-chloro-N-(3-((dimethylamino)methyl)-5-(trifluoromethyl)phenyl)-1-methyl-6-((6-(methylamino)pyrazolo[1,5-a]pyrazin-3-yl)oxy)-1H-imidazo[4,5-b]pyridin-2-amine] yielded a dissociation constant Kd of 10 to 50 nM.

The compound `CNc1cn2ncc(Oc3cnc4nc(Nc5cc(C(F)(F)F)cn(-c6cnn(C)c6)c5=O)n(C)c4c3Cl)c2cn1` [Example I-328, 3-((7-chloro-1-methyl-6-((6-(methylamino)pyrazolo[1,5-a]pyrazin-3-yl)oxy)-1H-imidazo[4,5-b]pyridin-2-yl)amino)-1-(1-methyl-1H-pyrazol-4-yl)-5-(trifluoromethyl)pyridin-2(1H)-one] showed a Kd of 10 to 50 nM.

In turn, `Cc1c[nH]c2ncc(Oc3cnc4nc(Nc5cc(C(F)(F)F)cn(C)c5=O)n(C)c4c3C#N)cc12` [Example I-329, 1-methyl-6-((3-methyl-1H-pyrrolo[2,3-b]pyridin-5-yl)oxy)-2-((1-methyl-2-oxo-5-(trifluoromethyl)-1,2-dihydropyridin-3-yl)amino)-1H-imidazo[4,5-b]pyridine-7-carbonitrile] returned a dissociation constant Kd of under 10 nM.

As to `Cn1c(Nc2cc(C(F)(F)F)n(C3CC4(COC4)C3)n2)nc2ncc(Oc3cnc4[nH]ncc4c3)c(C#N)c21` [Example I-330, 6-((1H-pyrazolo[3,4-b]pyridin-5-yl)oxy)-2-((1-(2-oxaspiro[3.3]heptan-6-yl)-5-(trifluoromethyl)-1H-pyrazol-3-yl)amino)-1-methyl-1H-imidazo[4,5-b]pyridine-7-carbonitrile], the Kd is under 10 nM.

With `CNc1cn2ncc(Oc3cnc4nc(Nc5cc(OC[C@@H]6CCCN6C)cc(C(F)(F)F)c5)n(C)c4c3Cl)c2cn1` [Example I-331, (S)-7-chloro-1-methyl-6-((6-(methylamino)pyrazolo[1,5-a]pyrazin-3-yl)oxy)-N-(3-((1-methylpyrrolidin-2-yl)methoxy)-5-(trifluoromethyl)phenyl)-1H-imidazo[4,5-b]pyridin-2-amine], the dissociation constant Kd is under 10 nM.

`CNc1cn2ncc(Oc3cnc4nc(Nc5cc(OC[C@H]6CCCN6C)cc(C(F)(F)F)c5)n(C)c4c3Cl)c2cn1` [Example I-332, (R)-7-chloro-1-methyl-6-((6-(methylamino)pyrazolo[1,5-a]pyrazin-3-yl)oxy)-N-(3-((1-methylpyrrolidin-2-yl)methoxy)-5-(trifluoromethyl)phenyl)-1H-imidazo[4,5-b]pyridin-2-amine] came in with a Kd of under 10 nM.

For the compound `Cn1cc(C(F)(F)F)cc(Nc2nc3ncc(Oc4cnc5[nH]nc(C(F)(F)F)c5c4)c(C#N)c3n2C)c1=O` [Example I-333, 1-methyl-2-((1-methyl-2-oxo-5-(trifluoromethyl)-1,2-dihydropyridin-3-yl)amino)-6-((3-(trifluoromethyl)-1H-pyrazolo[3,4-b]pyridin-5-yl)oxy)-1H-imidazo[4,5-b]pyridine-7-carbonitrile], the Kd fell in the range of 10 to 50 nM.

Consider `Cc1c(Oc2cnc3nc(Nc4cc(C(F)(F)F)cn(C)c4=O)n(C)c3c2C#N)cnc2[nH]ccc12` [Example I-334, 1-methyl-6-((4-methyl-1H-pyrrolo[2,3-b]pyridin-5-yl)oxy)-2-((1-methyl-2-oxo-5-(trifluoromethyl)-1,2-dihydropyridin-3-yl)amino)-1H-imidazo[4,5-b]pyridine-7-carbonitrile], for which the dissociation constant (Kd) lay within 10 to 50 nM.

Compound `Cn1cc(C(F)(F)F)cc(Nc2nc3ncc(Oc4cnc5[nH]ccc5c4F)c(C#N)c3n2C)c1=O` [Example I-335, 6-((4-fluoro-1H-pyrrolo[2,3-b]pyridin-5-yl)oxy)-1-methyl-2-((1-methyl-2-oxo-5-(trifluoromethyl)-1,2-dihydropyridin-3-yl)amino)-1H-imidazo[4,5-b]pyridine-7-carbonitrile] returned an equilibrium dissociation constant (Kd) of under 10 nM.

The compound `Cn1cc(C(F)(F)F)cc(Nc2nc3ncc(Oc4cnn5cc(OCCN6CCOCC6)ccc45)c(C#N)c3n2C)c1=O` [Example I-336, 1 1-methyl-2-((1-methyl-2-oxo-5-(trifluoromethyl)-1,2-dihydropyridin-3-yl)amino)-6-((6-(2-morpholinoethoxy)pyrazolo[1,5-a]pyridin-3-yl)oxy)-1H-imidazo[4,5-b]pyridine-7-carbonitrile] registered a Kd of under 10 nM.

Compound `Cn1cc(C(F)(F)F)cc(Nc2nc3ncc(Oc4cnc5[nH]nc(C6CC6)c5c4)c(C#N)c3n2C)c1=O` [Example I-337, 6-((3-cyclopropyl-1H-pyrazolo[3,4-b]pyridin-5-yl)oxy)-1-methyl-2-((1-methyl-2-oxo-5-(trifluoromethyl)-1,2-dihydropyridin-3-yl)amino)-1H-imidazo[4,5-b]pyridine-7-carbonitrile] yielded a Kd of under 10 nM.

`CNc1cn2ncc(Oc3cnc4nc(Nc5cc6n(n5)CCCC6(C)C)n(C)c4c3Cl)c2cn1` [Example I-338, 7-chloro-N-(4,4-dimethyl-4,5,6,7-tetrahydropyrazolo[1,5-a]pyridin-2-yl)-1-methyl-6-((6-(methylamino)pyrazolo[1,5-a]pyrazin-3-yl)oxy)-1H-imidazo[4,5-b]pyridin-2-amine] registered an equilibrium dissociation constant (Kd) of under 10 nM.

`CNc1cn2ncc(Oc3cnc4nc(Nc5cc(-n6cnc(C)c6)cc(C(F)(F)F)c5)n(C)c4c3Cl)c2cn1` [Example I-339, 7-chloro-1-methyl-N-(3-(4-methyl-1H-imidazol-1-yl)-5-(trifluoromethyl)phenyl)-6-((6-(methylamino)pyrazolo[1,5-a]pyrazin-3-yl)oxy)-1H-imidazo[4,5-b]pyridin-2-amine] came in with a Kd of under 10 nM.

For `CNc1cn2ncc(Oc3cnc4nc(Nc5cc(C(F)(F)F)n([C@@H]6CCOC6)n5)n(C)c4c3Cl)c2cn1` [Example I-340, (R)-7-chloro-1-methyl-6-((6-(methylamino)pyrazolo[1,5-a]pyrazin-3-yl)oxy)-N-(1-(tetrahydrofuran-3-yl)-5-(trifluoromethyl)-1H-pyrazol-3-yl)-1H-imidazo[4,5-b]pyridin-2-amine], the Kd was under 10 nM.

`Cc1n[nH]c2ncc(Oc3cnc4nc(Nc5cc(C(F)(F)F)cn(C)c5=O)n(C)c4c3C#N)cc12` [Example I-341, 1-methyl-6-((3-methyl-1H-pyrazolo[3,4-b]pyridin-5-yl)oxy)-2-((1-methyl-2-oxo-5-(trifluoromethyl)-1,2-dihydropyridin-3-yl)amino)-1H-imidazo[4,5-b]pyridine-7-carbonitrile] displayed a Kd of under 10 nM.

Consider `Cn1c(Nc2ccc(CN3CCCC3)c(C(F)(F)F)c2)nc2ncc(Oc3cnn4ccncc34)c(C#N)c21` [Example I-342, 1-methyl-6-(pyrazolo[1,5-a]pyrazin-3-yloxy)-2-((4-(pyrrolidin-1-ylmethyl)-3-(trifluoromethyl)phenyl)amino)-1H-imidazo[4,5-b]pyridine-7-carbonitrile], for which the Kd fell in the range of 10 to 50 nM.

On to `CCn1c(C(C)(C)C)ncc(Nc2nc3ncc(Oc4cnn5cc(NC)ncc45)c(Cl)c3n2C)c1=O` [Example I-345, 2-(tert-butyl)-5-((7-chloro-1-methyl-6-((6-(methylamino)pyrazolo[1,5-a]pyrazin-3-yl)oxy)-1H-imidazo[4,5-b]pyridin-2-yl)amino)-3-ethylpyrimidin-4(3H)-one], for which the Kd was 10 to 50 nM.

In the case of `CNc1cn2ncc(Oc3cnc4nc(Nc5cc(C(C)(C)C)n([C@H]6CCN(C)C6)n5)n(C)c4c3Cl)c2cn1` [Example I-346, (S)—N-(5-(tert-butyl)-1-(1-methylpyrrolidin-3-yl)-1H-pyrazol-3-yl)-7-chloro-1-methyl-6-((6-(methylamino)pyrazolo[1,5-a]pyrazin-3-yl)oxy)-1H-imidazo[4,5-b]pyridin-2-amine], the Kd was in the range of 10 to 50 nM.

`CNc1cn2ncc(Oc3cnc4nc(Nc5cc(C(C)(C)C)n([C@@H]6CCN(C)C6)n5)n(C)c4c3Cl)c2cn1` [Example I-347, (R)—N-(5-(tert-butyl)-1-(1-methylpyrrolidin-3-yl)-1H-pyrazol-3-yl)-7-chloro-1-methyl-6-((6-(methylamino)pyrazolo[1,5-a]pyrazin-3-yl)oxy)-1H-imidazo[4,5-b]pyridin-2-amine] had a dissociation constant Kd of 50 to 1000 nM.

Regarding `CNc1cn2ncc(Oc3cnc4nc(Nc5cc(C(=O)N(C)C)c(F)c(C(F)(F)F)c5)n(C)c4c3Cl)c2cn1` [Example I-348, 5-((7-chloro-1-methyl-6-((6-(methylamino)pyrazolo[1,5-a]pyrazin-3-yl)oxy)-1H-imidazo[4,5-b]pyridin-2-yl)amino)-2-fluoro-N,N-dimethyl-3-(trifluoromethyl)benzamide], the dissociation constant (Kd) fell in the range of 10 to 50 nM.

Turning to `COc1c[nH]c2ncc(Oc3cnc4nc(Nc5cc(C(F)(F)F)cn(C)c5=O)n(C)c4c3C#N)cc12` [Example I-349, 6-((3-methoxy-1H-pyrrolo[2,3-b]pyridin-5-yl)oxy)-1-methyl-2-((1-methyl-2-oxo-5-(trifluoromethyl)-1,2-dihydropyridin-3-yl)amino)-1H-imidazo[4,5-b]pyridine-7-carbonitrile], the dissociation constant (Kd) was under 10 nM.
